Test results reported in patent US7544700B2, “Pharmaceutically active sulfonamide derivatives bearing both lipophilic and ionisable moieties as inhibitors of protein JunKinases” (Laboratoires Serono SA, priority 2000, dated 2009).
pIC50: −log10 of the molar value. Counter-ions that a name gives are not always drawn. One block for each compound: values may come before it.

How the values were obtained:
Male C57BL/6 mice = test: LPS induced endotoxin shock in mice; format: in vivo; settings: intravenously 15 min before LPS challenge
Experimental: Endotoxins are the lipopolysaccharides (LPS) constituents of the outer membrane of Gram negative bacteria. […] As LPS is known to stimulate the activation of various MAP kinase pathways, including JNK (35), the ability of JNK inhibitors can be tested after the JNK signaling pathway has been switched on by a LPS challenge.
LPS (S. abortus-Galanos Lab.-) is injected (200 μg/kg, i.v.) to Male C57BL/6 mice to induce endotoxin shock. Compounds according to formula I (0.1, 1, 10 mg/kg) or NaCl ([…]) are injected intravenously (10 mL/kg) 15 min before the LPS challenge. Heparinized blood was obtained from the orbital sinus at different time points after the LPS challenge, and the blood was centrifuged at 9'000 rpm for 10 min at 4° C. to collect supernatent. Measurement of cytokines production such as TNFα and IFNγ by mouse is performed with an ELISA kit such as Duoset® DY410 for TNFα and DY 485 for IFN γ. Other ELISA assays such as described in (36) can be used.

Solubility in water = format: physicochemical; settings: pH 7.4, aqueous buffer, pH of 7.4 at room temperature
Experimental: The compounds have been assessed in respect of their solubility in water, at a pH of 7.4 at room temperature. In general the solubility of compounds of formula (I) is in a range of at least 50 μg/mL solvent, more preferably of at least 100 μg/mL solvent. For instance compounds (63), (163), (198) display a solubility in water of at least 200 μg/mL solvent.

JNK1 = JNK1 (Homo sapiens, UniProt P45983); test: JNK1 inhibition; format: biochemical; settings: read-out: inhibition (IC50) with regard to JNK1
Chain of JNK1 (P45983 whole entry, species assumed): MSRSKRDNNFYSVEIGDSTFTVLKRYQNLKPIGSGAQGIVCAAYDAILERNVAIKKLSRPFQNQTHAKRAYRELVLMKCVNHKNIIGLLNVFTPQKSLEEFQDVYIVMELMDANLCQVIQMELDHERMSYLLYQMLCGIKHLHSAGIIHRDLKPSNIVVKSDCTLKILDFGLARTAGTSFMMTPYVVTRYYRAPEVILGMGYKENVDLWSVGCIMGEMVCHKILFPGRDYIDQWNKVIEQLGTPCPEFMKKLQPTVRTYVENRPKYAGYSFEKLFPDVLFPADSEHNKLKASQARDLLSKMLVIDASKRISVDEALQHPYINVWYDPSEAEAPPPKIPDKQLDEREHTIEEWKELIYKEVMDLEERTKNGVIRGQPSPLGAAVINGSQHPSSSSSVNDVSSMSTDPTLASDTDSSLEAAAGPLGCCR

GST-JNK3 = GST-JNK3 (Homo sapiens, UniProt P53779); test: JNK3 in vitro assay (33P incorporation into c-jun, SPA); format: biochemical
Chain of GST-JNK3 (P53779 whole entry): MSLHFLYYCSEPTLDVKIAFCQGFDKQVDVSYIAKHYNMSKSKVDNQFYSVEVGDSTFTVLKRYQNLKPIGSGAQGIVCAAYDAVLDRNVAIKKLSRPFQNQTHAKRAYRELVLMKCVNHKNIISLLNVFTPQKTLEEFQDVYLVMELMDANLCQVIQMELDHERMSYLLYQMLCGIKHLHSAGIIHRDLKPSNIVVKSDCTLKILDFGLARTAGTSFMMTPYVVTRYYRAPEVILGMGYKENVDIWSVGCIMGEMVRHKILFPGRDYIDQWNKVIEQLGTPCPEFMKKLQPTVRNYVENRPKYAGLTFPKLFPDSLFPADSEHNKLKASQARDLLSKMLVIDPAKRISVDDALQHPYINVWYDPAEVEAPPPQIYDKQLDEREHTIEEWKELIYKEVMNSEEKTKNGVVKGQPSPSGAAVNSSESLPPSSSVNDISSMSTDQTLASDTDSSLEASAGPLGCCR
Experimental: (§1) The phosphorylation of c-jun by JNK2 or JNK3 may be followed by monitoring the incorporation of ^33P into c-jun following the protocol below. The inhibitory activity of the compounds according to formula I, in respect of c-jun phosphorylation through JNK, is determined by calculating the phosphorylation activity of a JNK in the presence or absence of the test compounds according to formula I.
(§2) JNK3 and/or -2 assays are performed in 96 well NM plates: incubation of 0.5 μg of recombinant, pre-activated GST-JNK3 or GST-JNK2 with 1 μg of recombinant, biotinylated GST-c-Jun and 2 μM ^33γ-ATP (2 nCi/μl), in the presence or absence of compounds according to formula I and in a reaction volume of 50 μl containing 50 mM Tris-HCl, pH 8.0; 10 mM MgCl2; 1 mM Dithiothreitol, and 100 μM NaVO4. The incubation is performed for 120 min. at R.T and stopped upon addition of 200 μl of a solution containing 250 μg of Streptavidine-coated SPA beads (Amersham, Inc.)*, 5 mM EDTA, 0.1% Triton X-100 and 50 μM ATP, in phosphate saline buffer. After incubation for 60 minutes at RT, beads are sedimented by centrifugation at 1500×g for 5 minutes, resuspended in 200 μl of PBS containing 5 mM EDTA, 0.1% Triton X-100 and 50 μM ATP and the radioactivity measured in a scintillation β counter, following sedimentation of the beads as described above. By replacing biotinylated GST-c Jun with biotinylated GST-1ATF2 or biotinylated myelin basic protein, this assay may also be used to measure inhibition of pre-activated p38 and ERK MAP Kinases, respectively.

GST-JNK2 = GST-JNK2 (Homo sapiens, UniProt P45984); test: JNK2 in vitro assay (33P incorporation into c-jun, SPA); format: biochemical
Chain of GST-JNK2 (P45984 whole entry): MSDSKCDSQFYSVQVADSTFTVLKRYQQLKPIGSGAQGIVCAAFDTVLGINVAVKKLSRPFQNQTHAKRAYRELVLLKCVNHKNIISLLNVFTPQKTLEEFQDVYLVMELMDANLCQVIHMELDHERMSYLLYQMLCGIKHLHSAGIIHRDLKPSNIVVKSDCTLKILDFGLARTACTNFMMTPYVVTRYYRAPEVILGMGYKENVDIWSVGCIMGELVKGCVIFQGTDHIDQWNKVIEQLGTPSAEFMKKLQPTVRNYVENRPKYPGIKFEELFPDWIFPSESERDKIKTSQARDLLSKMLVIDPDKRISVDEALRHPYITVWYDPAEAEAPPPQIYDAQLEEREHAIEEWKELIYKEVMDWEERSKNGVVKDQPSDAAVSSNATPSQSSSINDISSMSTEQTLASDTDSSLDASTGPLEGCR
Experimental: as §1, §2

[1] = tested on: Sympathetic neurons from superior cervical ganglia (SCG); test: Sympathetic neuron culture and survival assay; format: cell-based, rat; settings: at 3 μM; anti NGF antibody induced cell death, MTT after 24 hours
Experimental: The Ability of the Compounds According to Formula I to Increase the Survival Rate of Neuronal Cells Having Been Induced to Cell Death was Assessed Using the Following Protocol
Cell death is induced at day 4 after plating by exposing the culture to medium containing 10 μg/mL of anti NGF anti-body (Boehringer Mannheim Corp., Indianapolis, Ind.) and no NGF or arabinosine, in the presence or absence of sulfonamide inhibitors. 24 hours after cell death induction, determination of cell viability is performed by incubation of the culture for 1 hour, at 37° C. in 0.5 mg/mL of 3-(4,5-dimethylthiazol-2-yl)-2,5 diphenyl tetrazolium bromide (MTT). After incubation in MTT cells are resuspended in DMSO, transferred to a 96 MTT plate and cell viability is evaluated by measuring optical density at 590 nm.

[2] = tested on: IL-2 release by (PMA+Ionomycin)-stimulated Jurkat cells; test: IL-2 release assay (IL-2 ELISA); format: cell-based; settings: Homo sapiens; PMA + Ionomycine stimulated Jurkat cells
Experimental: The Ability of the Compounds According to Formula I to Modulate the Inflammatory Response by Inhibiting the Release of IL-2 was Assessed Using the Following Protocol
JNK pathway activation triggers the production of inflammatory cytokines such as IL-2. JNK can be activated by external stimuli such as PMA and Ionomycine and IL-2 production can be measured via an IL-2 ELISA test. Comparative measurements with and without the compounds of the invention according to the following protocol measure the ability of the compounds to prevent to stress-mediated IL-2 release.
Jurkat cells, a human T cell leukemia cell line (American Type Culture Collection # TIB 152) were cultured in RPMI 1640 medium (Gibco, BRL) supplemented with 10% of […] fetal calf serum (FCS), Glutamine and Penstrep. The cell suspension in the medium is diluted to give 2.10^6 cells/mL. The cells were plated (2.10^5 cells/well) on a 96-well plate containing different concentrations of a compound according to formula I (final concentration of compounds, 10, 3, 1, 0.3, 0.1 μM). This mixture is incubated 30 minutes at 37° C. in a humidified CO2 atmosphere. Cells were then treated with 10 μl PMA (Phorbolmyristate-13 Acetate-12)+Ionomycine (0.1 μM and 1 μM final concentration) in all wells except negative control. In wells without compounds, 10 μl of RPMI 2% DMSO (=0.1% final) is added. Cells are incubated 24 hours at 37° C. and then the supernatant harvested (freeze at −20° C. if not used the same day) prior to performing IL-2 ELISA test on the supernatant.
IL-2 release into the medium by (PMA+Iononomycin)-stimulated Jurkat cells, in presence or absence of test compounds may be assayed by ELISA. Following the procedure described below.
Monoclonal anti-human IL-2 antibody (MAB602) (capture), biotinylated anti-human IL-2 antibody (BAF202) (detection) and recombinant human IL-2 (202-IL-010) (standard) from From R&D Systems are used. […]
• 1. […] Optical density is measured using a microtiter plate reader set to 450 nm with correction at 570 nm.

[3] = tested on: gerbil bilateral carotid occlusion; test: Global ischemia in gerbils; format: in vivo; settings: 80 mg/kg
Experimental: The Ability of the JNK Inhibitors Described in Formula I to Protect Cell Death During a Stroke Event was Assessed Using the Following Protocol:
The gerbil bilateral carotid occlusion is a well-described animal model of acute ischemic stroke and involves relatively easy surgical techniques.
The neuronal degeneration in the hippocampus develops over several days and is often referred as “delayed neuronal death”. In addition, the neurodegeneration observed histologically is obvious and easily quantified (37). Furthermore, the histopathology seen in the gerbil is similar to that observed in the hippocampal CA1 region of the human brain following a cardiac arrest. Behavior observations, such as memory tests, could even be performed in the case of gerbils. This kind of tests for appreciation of the degree of recovery is not easily manageable in other models such as in rat whose learning abilities are much poorer (38).
• Anesthesia with isoflurane (0.5-4%). • The common carotid arteries (left and right) are freed from tissue. • Occlusion of the arteries using Bulldog microclamps during 5 min. • Removal of clamps (reperfusion) • Stabulation of the animals under heating lamp until awake. • Stabulation of the animals in the animalry in individual cages. Sacrifice of the Animals • 7 days after ischemia (Decapitation or overdose of pentobarbital). • Sampling of the brain. […]

melting point: 288 to 289 °C
SMILES: O=C(NCc1ccc(S(=O)(=O)N2CCC(NCc3ccc(C(F)(F)F)cc3)CC2)s1)c1ccc[nH]c1=O (as salt: HCl) [Example 198, 2-Oxo-N-({5-[(4-{[4-(trifluoromethyl)benzyl]amino}-1-piperidinyl)sulfonyl]-2-thienyl}methyl)-1,2-dihydro-3-pyridinecarboxamide]

solubility (Solubility in water): ≥ 200 µg/mL | pIC50 (JNK1): 6.15 to 7.00 | pIC50 (GST-JNK3): > 6.22 | pIC50 (GST-JNK2): > 6.22
SMILES: CCCCCCNC1CCN(S(=O)(=O)c2ccc(CNC(=O)c3ccc(Cl)cc3)s2)CC1 [Example 63, 4-Chloro-N-[(5-{[4-(hexylamino)piperidin-1-yl]sulfonyl}thien-2-yl)methyl]benzamide]
inhibition of IFNγ production (Male C57BL/6 mice; 1 mg/kg): 65% | inhibition of TNFα production (Male C57BL/6 mice; 10 mg/kg): 40% | rescue rate of SCG cells [1]: 35%

pIC50 [2]: > 6.10
SMILES: CCCCNC1CCN(S(=O)(=O)c2ccc(CNC(=O)c3ccc(Cl)cc3)s2)CC1 [Example 68, 4-chloro-N-[(5-{[4-(butylamino)piperidin-1-yl]sulfonyl}thien-2-yl)methyl]benzamide]
inhibition of global ischemia (% inhibition of total lesion) [3]: 64%

solubility (Solubility in water): ≥ 200 µg/mL | pIC50 (JNK1): 6.15 to 7.00
SMILES: O=C(NCc1ccc(S(=O)(=O)N2CCC(NCc3ccc(C(F)(F)F)cc3)CC2)s1)c1ccc[nH]c1=O [Example 198, 2-Oxo-N-({5-[(4-{[4-(trifluoromethyl)benzyl]amino}-1-piperidinyl)sulfonyl]-2-thienyl}methyl)-1,2-dihydro-3-pyridinecarboxamide]
